Reference: patent US20150141381A1, “TETRACYCLINE COMPOUNDS HAVING TARGET THERAPEUTIC ACTIVITIES” (Paratek Pharmaceuticals, Inc., priority 2001, published 2015)
Read-outs that look alike come from different tables or passages of the source.

Assays:
S. aureus RN450 = assay: In Vitro Anti-Bacterial Activity Assay (MIC), gram positive; type: cell-based; settings: for MIC: Staphylococcus aureus, RN450, 18 h
E. coli mL308 225 = assay: In Vitro Anti-Bacterial Activity Assay (MIC), gram negative; type: cell-based; settings: for MIC: Escherichia coli, ML308225, 18 h
[1] = MIC class, Table 3, read-out: Antibiotic Activity Gram +
[2] = MIC class, Table 3, read-out: Antibiotic Activity Gram −
[3] = MIC class, Table 3 (Continued), read-out: Gram+ activity
[4] = MIC class, Table 3 (Continued), read-out: Gram− activity
[5] = gram positive bacteria, read-out: Antibiotic Activity Gram + (MIC)
[6] = gram negative bacteria, read-out: Antibiotic Activity Gram − (MIC)

CN(C)[C@@H]1C(O)=C(C(N)=O)C(=O)[C@@]2(O)C(O)=C3C(=O)c4c(O)c(CN5CCOCC5)cc(-c5ccoc5)c4C[C@H]3C[C@@H]12 [QA]
MIC (S. aureus RN450; [1]): < 4 µg/mL
MIC (E. coli mL308 225; [2]): < 4 µg/mL

CN(C)/C=N/c1ccc(O)c2c1C[C@H]1C[C@H]3[C@@H](N(C)C)C(O)=C(C(N)=O)C(=O)[C@@]3(O)C(O)=C1C2=O [QC]
MIC (S. aureus RN450; [1]): < 4 µg/mL
MIC (E. coli mL308 225; [2]): < 4 µg/mL

C[C@H]1c2cccc(O)c2C(=O)C2=C(O)[C@]3(O)C(=O)C(C(N)=O)=C(O)[C@@H](N(C)C)[C@@H]3[C@@H](OC(=O)CCN3CCCC3)[C@@H]21 [R]
MIC (S. aureus RN450; [1]): < 4 µg/mL
MIC (E. coli mL308 225; [2]): < 4 µg/mL

CN(C)c1cc(NC(=O)Nc2cccc3ccccc23)c(O)c2c1C[C@H]1C[C@H]3[C@H](N(C)C)C(O)=C(C(N)=O)C(=O)[C@@]3(O)C(O)=C1C2=O [S]
MIC (S. aureus RN450; [1]): < 4 µg/mL
MIC (E. coli mL308 225; [2]): > 4 µg/mL

C[C@H]1c2cccc(O)c2C(=O)C2=C(O)[C@]3(O)C(=O)C(C(N)=O)=C(O)[C@@H](N(C)C)[C@@H]3[C@@H](OC(=O)C34CC5CC(CC(C5)C3)C4)[C@@H]21 [T]
MIC (S. aureus RN450; [1]): < 4 µg/mL
MIC (E. coli mL308 225; [2]): > 4 µg/mL

C[C@H]1c2ccc(NC(=O)Oc3ccc(F)cc3)c(O)c2C(=O)C2=C(O)[C@]3(O)C(=O)C(C(N)=O)=C(O)[C@@H](N(C)C)[C@@H]3[C@@H](O)[C@@H]21 [V]
MIC (S. aureus RN450; read-out: Antibiotic Activity Gram +): > 4 µg/mL
MIC (E. coli mL308 225; read-out: Antibiotic Activity Gram −): > 4 µg/mL

CN(C)c1cc(-c2cccs2)c(O)c2c1C[C@H]1C[C@H]3[C@H](N(C)C)C(O)=C(C(N)=O)C(=O)[C@@]3(O)C(O)=C1C2=O [W]
MIC (S. aureus RN450; [1]): < 4 µg/mL
MIC (E. coli mL308 225; [2]): > 4 µg/mL

CN(C)c1cc(-c2ccc3c(c2)OCO3)c(O)c2c1C[C@H]1C[C@H]3[C@H](N(C)C)C(O)=C(C(N)=O)C(=O)[C@@]3(O)C(O)=C1C2=O [Y]
MIC (S. aureus RN450; [1]): < 4 µg/mL
MIC (E. coli mL308 225; [2]): > 4 µg/mL

CN(C)[C@@H]1C(O)=C(C(N)=O)C(=O)[C@@]2(O)C(O)=C3C(=O)c4c(O)ccc(-c5ccc6c(c5)OCO6)c4C[C@H]3C[C@@H]12 [drawing 3286]
MIC (S. aureus RN450; [3]): < 4 µg/mL
MIC (E. coli mL308 225; [4]): < 4 µg/mL

CN(C)[C@@H]1C(O)=C(C(N)=O)C(=O)[C@@]2(O)C(O)=C3C(=O)c4c(O)ccc(-c5ccoc5)c4C[C@H]3C[C@@H]12 [drawing 3287]
MIC (S. aureus RN450; [3]): < 4 µg/mL
MIC (E. coli mL308 225; [4]): < 4 µg/mL

COc1ccc(-c2ccc(O)c3c2C[C@H]2C[C@H]4[C@H](N(C)C)C(O)=C(C(N)=O)C(=O)[C@@]4(O)C(O)=C2C3=O)cc1 [drawing 3310]
MIC (S. aureus RN450; [3]): < 4 µg/mL
MIC (E. coli mL308 225; [4]): < 4 µg/mL

CN(C)[C@@H]1C(O)=C(C(N)=O)C(=O)[C@@]2(O)C(O)=C3C(=O)c4c(O)ccc(-c5cc6ccccc6o5)c4C[C@H]3C[C@@H]12 [drawing 3311]
MIC (S. aureus RN450; [3]): < 4 µg/mL
MIC (E. coli mL308 225; [4]): < 4 µg/mL

COc1ccc(-c2ccc(O)c3c2C[C@H]2C[C@H]4[C@H](N(C)C)C(O)=C(C(N)=O)C(=O)[C@@]4(O)C(O)=C2C3=O)cc1 [drawing 3312]
Gram+ activity (S. aureus RN450; MIC class, Table 3 (Continued)): ** (compounds with MIC less than or equal to 4 μg/ml are indicated with **)
Gram− activity (E. coli mL308 225; MIC class, Table 3 (Continued)): ** (compounds with MIC less than or equal to 4 μg/ml are indicated with **)

CN(C)[C@@H]1C(O)=C(C(N)=O)C(=O)[C@@]2(O)C(O)=C3C(=O)c4c(O)ccc(-c5ccc(C(C)(C)C)cc5)c4C[C@H]3C[C@@H]12 [drawing 3327]
MIC (S. aureus RN450; [3]): < 4 µg/mL
Gram− activity (E. coli mL308 225; number printed instead of class symbol, Table 3 (Continued)): 1.5

Cc1ccc(/C=C/c2ccc(O)c3c2C[C@H]2C[C@H]4[C@H](N(C)C)C(O)=C(C(N)=O)C(=O)[C@@]4(O)C(O)=C2C3=O)cc1 [drawing 3339]
MIC (S. aureus RN450; [3]): < 4 µg/mL
MIC (E. coli mL308 225; [4]): < 4 µg/mL

Cc1ccc(/C=C/c2ccc(O)c3c2C[C@H]2C[C@H]4[C@H](N(C)C)C(O)=C(C(N)=O)C(=O)[C@@]4(O)C(O)=C2C3=O)cc1 [drawing 3345]
MIC (S. aureus RN450; [5]): < 4 µg/mL
MIC (E. coli mL308 225; [6]): < 4 µg/mL

CN(C)c1cc(NC(=O)Oc2ccccc2)c(O)c2c1C[C@H]1C[C@H]3[C@H](N(C)C)C(O)=C(C(N)=O)C(=O)[C@@]3(O)C(O)=C1C2=O [drawing 3360]
MIC (S. aureus RN450; read-out: Antibiotic Activity Gram + (MIC)): > 4 µg/mL
MIC (E. coli mL308 225; read-out: Antibiotic Activity Gram − (MIC)): > 4 µg/mL

CCOC(=O)Nc1cc(N(C)C)c2c(c1O)C(=O)C1=C(O)[C@]3(O)C(=O)C(C(N)=O)=C(O)[C@@H](N(C)C)[C@@H]3C[C@@H]1C2 [drawing 3362]
MIC (S. aureus RN450; [5]): < 4 µg/mL
MIC (E. coli mL308 225; [6]): < 4 µg/mL

CCOC(=O)Nc1cc(N(C)C)c2c(c1O)C(=O)C1=C(O)[C@]3(O)C(=O)C(C(N)=O)=C(O)[C@@H](N(C)C)[C@@H]3C[C@@H]1C2 [drawing 3364]
Antibiotic Activity Gram + (MIC) (S. aureus RN450; gram positive bacteria): ** (compounds with MIC less than or equal to 4 μg/ml are indicated with **)
Antibiotic Activity Gram − (MIC) (E. coli mL308 225; gram negative bacteria): ** (compounds with MIC less than or equal to 4 μg/ml are indicated with **)

CC(C)CNCc1cc(N(C)C)c2c(c1O)C(=O)C1=C(O)[C@]3(O)C(=O)C(C(N)=O)=C(O)[C@@H](N(C)C)[C@@H]3C[C@@H]1C2 [drawing 3371]
Antibiotic Activity Gram + (MIC) (S. aureus RN450; gram positive bacteria): ** (compounds with MIC less than or equal to 4 μg/ml are indicated with **)
Antibiotic Activity Gram − (MIC) (E. coli mL308 225; gram negative bacteria): ** (compounds with MIC less than or equal to 4 μg/ml are indicated with **)

CN(C)[C@@H]1C(O)=C(C(N)=O)C(=O)[C@@]2(O)C(O)=C3C(=O)c4c(O)ccc(-c5cc6ccccc6o5)c4C[C@H]3C[C@@H]12 [drawing 3387]
MIC (S. aureus RN450; [5]): < 4 µg/mL
MIC (E. coli mL308 225; [6]): > 4 µg/mL

CN(C)CCC(=O)c1ccc(O)c2c1C[C@H]1C[C@H]3[C@H](N(C)C)C(O)=C(C(N)=O)C(=O)[C@@]3(O)C(O)=C1C2=O [drawing 3401]
MIC (S. aureus RN450; [5]): < 4 µg/mL
MIC (E. coli mL308 225; [6]): > 4 µg/mL

COc1ccc(-c2ccc(O)c3c2C[C@H]2C[C@H]4[C@H](N(C)C)C(O)=C(C(N)=O)C(=O)[C@@]4(O)C(O)=C2C3=O)cc1 [drawing 3425]
MIC (S. aureus RN450; [5]): < 4 µg/mL
MIC (E. coli mL308 225; [6]): < 4 µg/mL

CN(C)[C@@H]1C(O)=C(C(N)=O)C(=O)[C@@]2(O)C(O)=C3C(=O)c4c(O)ccc(-c5ccc(C(C)(C)C)cc5)c4C[C@H]3C[C@@H]12 [drawing 3426]
MIC (S. aureus RN450; [5]): < 4 µg/mL
MIC (E. coli mL308 225; [6]): < 4 µg/mL

CN(C)[C@@H]1C(O)=C(C(N)=O)C(=O)[C@@]2(O)C(O)=C3C(=O)c4c(O)ccc(-c5ccoc5)c4C[C@H]3C[C@@H]12 [drawing 3429]
MIC (S. aureus RN450; [5]): < 4 µg/mL
MIC (E. coli mL308 225; [6]): < 4 µg/mL

CN(C)c1cc(CNCC(C)(C)C)c(O)c2c1C[C@H]1C[C@H]3[C@H](N(C)C)C(O)=C(C(N)=O)C(=O)[C@@]3(O)C(O)=C1C2=O [drawing 3433]
MIC (S. aureus RN450; [5]): < 4 µg/mL
MIC (E. coli mL308 225; [6]): > 4 µg/mL

CC(C)CNCc1cc(N(C)C)c2c(c1O)C(=O)C1=C(O)[C@]3(O)C(=O)C(C(N)=O)=C(O)[C@@H](N(C)C)[C@@H]3C[C@@H]1C2 [drawing 3469]
MIC (S. aureus RN450; [5]): < 4 µg/mL
MIC (E. coli mL308 225; [6]): < 4 µg/mL

CC(C)CNCc1cc(N(C)C)c2c(c1O)C(=O)C1=C(O)[C@]3(O)C(=O)C(C(N)=O)=C(O)[C@@H](N(C)C)[C@@H]3C[C@@H]1C2 [drawing 3475]
Antibiotic Activity Gram + (MIC) (S. aureus RN450; gram positive bacteria): * (compounds with an MIC of greater than 4 μg/ml are indicated with *)
Antibiotic Activity Gram − (MIC) (E. coli mL308 225; gram negative bacteria): * (compounds with an MIC of greater than 4 μg/ml are indicated with *)

CN(C)[C@@H]1C(O)=C(C(N)=O)C(=O)[C@@]2(O)C(O)=C3C(=O)c4c(O)ccc(-c5ccc6c(c5)OCO6)c4C[C@H]3C[C@@H]12 [drawing 3479]
MIC (S. aureus RN450; [5]): < 4 µg/mL
MIC (E. coli mL308 225; [6]): < 4 µg/mL
